Experimental data taken from patent US20090203753A1, “7-(2-amino-1-hydroxy-ethyl)-4-hydroxybenzothiazol-2(3H)-one-derivatives as beta2 adrenoreceptor agonists” (AstraZeneca AB, priority 2005, published 2009).

What was measured:
β2 receptor [1] = biological target: T1, β2 receptor (Homo sapiens, UniProt P07550); experiment: β2 mediated cAMP production in H292 cells, AlphaScreen cAMP detection (10 minutes with test compound); type: cell-based
T1 construct: endogenous in cells; host or cells: H292 cells
T1 sequence (P07550 whole entry): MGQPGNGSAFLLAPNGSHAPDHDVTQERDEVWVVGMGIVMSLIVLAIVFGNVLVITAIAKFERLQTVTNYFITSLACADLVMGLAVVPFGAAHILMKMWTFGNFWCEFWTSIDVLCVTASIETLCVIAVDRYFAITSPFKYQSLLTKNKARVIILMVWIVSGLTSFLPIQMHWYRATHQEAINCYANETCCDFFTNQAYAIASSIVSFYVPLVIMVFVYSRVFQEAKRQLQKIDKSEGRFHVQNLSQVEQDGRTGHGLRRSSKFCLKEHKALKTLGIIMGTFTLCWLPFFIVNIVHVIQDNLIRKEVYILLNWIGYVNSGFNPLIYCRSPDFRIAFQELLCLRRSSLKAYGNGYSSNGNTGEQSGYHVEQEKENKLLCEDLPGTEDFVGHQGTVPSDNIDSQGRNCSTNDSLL
Method: H292 cells were grown in RPMI (Roswell Park Memorial Institute) medium containing, 10% (v/v) FBS (foetal bovine serum) and 2 mM L-glutamine. Cells were grown in 225 cm2 flasks containing 25 mL media in a humidified incubator at 37° C., 5% CO2. Cells were harvested from the flask and passaged at a 1 in 10 dilution once per week.
The media from flasks containing H292 cells was removed, rinsed with 10 mL PBS (phosphate buffered saline) and replaced with 10 mL Accutase™ cell detachment solution. Flasks were incubated for 15 minutes in a humidified incubator at 37° C., 5% CO2. The cell suspension was counted and the cells re-suspended in RPMI media (containing 10% (v/v) FBS and 2 mM L-glutamine) at 0.05×10^6 cells per mL. 5000 cells in 100 μL were added to each well of a tissue-culture-treated 96-well plate and the cells incubated overnight in a humidified incubator at 37° C., 5% CO2. The culture media was removed, washed twice with 100 μL assay buffer and replaced with 50 μL assay buffer. Cells were rested at room temperature for 20 minutes after which time 25 μL of rolipram (1.2 mM made up in assay buffer containing 2.4% (v/v) dimethylsulphoxide) was added. Cells were incubated with rolipram for 10 minutes after which time test compounds (made up as ×4 concentrated stocks in assay buffer containing 4% (v/v) dimethylsulphoxide) were added and the cells were incubated for 10 minutes at room temperature. Final rolipram concentration in the assay was 300 μM and final vehicle concentration was 1.6% (v/v) dimethylsulphoxide. The reaction was stopped by removing supernatants, washing once with 100 μL assay buffer and replacing with 50 μL lysis buffer. The cell monolayer was frozen at −80° C. for 30 minutes (or overnight).
(§1) The concentration of cAMP (cyclic adenosine monophosphate) in the cell lysate was determined using the AlphaScreen™ methodology. The frozen cell plate was thawed for 20 minutes on a plate shaker then 10 μL of the cell lysate was transferred to a 96-well white plate. 40 μL of mixed AlphaScreen™ detection beads (containing equal volumes of donor beads (pre-incubated with biotinylated cAMP in the dark for 30 minutes) and acceptor beads), was added to each well and the plate incubated at room temperature for 10 hours in the dark. The AlphaScreen™ signal was measured using an EnVision spectrophotometer (Perkin-Elmer Inc.) with the recommended manufacturer's settings. cAMP concentrations were determined by reference to a calibration curve determined in the same experiment using standard cAMP concentrations (made up in lysis buffer in a 96-well tissue-culture-treated plate and frozen/thawed alongside the test samples) and detected using the same protocol. Concentration response curves for agonists were constructed to determine both the pEC50 and Intrinsic Activity.

β2 receptor [2] = biological target: T1, β2 receptor; experiment: Alternative adrenergic β2 mediated cAMP production in H292 cells (60 minutes with test compound); type: cell-based
Method: Alternative Adrenergic (β2 Mediated cAMP Production
H292 cells were grown in 225 cm2 flasks incubator at 37° C., 5% CO2 in RPMI medium containing, 10% (v/v) FBS (foetal bovine serum) and 2 mM L-glutamine.
Adherent H292 cells were removed from tissue culture flasks by treatment with Accutase™ cell detachment solution for 15 minutes. Flasks were incubated for 15 minutes in a humidified incubator at 37° C., 5% CO2. Detached cells were re-suspended in RPMI media (containing 10% (v/v) FBS and 2 mM L-glutamine) at 0.05×10^6 cells per mL. 5000 cells in 100 μL were added to each well of a tissue-culture-treated 96-well plate and the cells incubated overnight in a humidified incubator at 37° C., 5% CO2. The culture media was removed and cells were washed twice with 100 μL assay buffer and replaced with 50 μL assay buffer (HBSS solution containing 10 mM HEPES pH7.4 and 5 mM glucose). Cells were rested at room temperature for 20 minutes after which time 25 μL of rolipram (1.2 mM made up in assay buffer containing 2.4% (v/v) dimethylsulphoxide) was added. Cells were incubated with rolipram for 10 minutes after which time test compounds were added and the cells were incubated for 60 minutes at room temperature. The final rolipram concentration in the assay was 300 μM and final vehicle concentration was 1.6% (v/v) dimethylsulphoxide. The reaction was stopped by removing supernatants, washing once with 100 μL assay buffer and replacing with 50 μL lysis buffer. The cell monolayer was frozen at −80° C. for 30 minutes (or overnight).
as §1, with “using” for “using the”, “pre-incubated” for “(containing equal volumes of donor beads (pre-incubated”, “cAMP,” for “cAMP in the dark for 30 minutes) and acceptor beads),”, “concentrations.” for “concentrations (made up in lysis buffer in a 96-well tissue-culture-treated plate and frozen/thawed alongside the test samples) and detected using the same protocol.”, “constructed and data was fitted to a four parameter logistic equation” for “constructed”, “Activity. […]” for “Activity.”

[3] = biological target: T2, recombinant human Dopamine Subtype D2s receptors (Homo sapiens, UniProt P14416); experiment: Dopamine D2 selectivity assay, [3H]-spiperone binding to membranes; settings: read-out: D2 bind pIC50 (converted)
T2 construct: purchased Perkin Elmer
T2 sequence (P14416 1-414 isoform P14416-2): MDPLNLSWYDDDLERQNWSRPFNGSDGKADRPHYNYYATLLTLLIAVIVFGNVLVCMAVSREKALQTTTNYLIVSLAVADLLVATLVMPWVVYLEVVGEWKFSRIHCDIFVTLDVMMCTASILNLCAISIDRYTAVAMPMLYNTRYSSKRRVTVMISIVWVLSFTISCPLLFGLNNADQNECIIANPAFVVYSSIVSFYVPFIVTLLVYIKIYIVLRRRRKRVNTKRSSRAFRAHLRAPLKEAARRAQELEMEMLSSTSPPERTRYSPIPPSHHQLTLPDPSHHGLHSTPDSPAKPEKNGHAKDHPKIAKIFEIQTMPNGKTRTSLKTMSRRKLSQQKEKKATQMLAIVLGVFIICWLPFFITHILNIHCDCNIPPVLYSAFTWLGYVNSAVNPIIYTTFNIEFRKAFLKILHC
Method: Membranes containing recombinant human Dopamine Subtype D2s receptors were obtained from Perkin Elmer. These were diluted in Assay Buffer (50 mM HEPES, […], 120 mM NaCl, 0.1% gelatin, pH 7.4) to provide a final concentration of membranes that gave a clear window between maximum and minimum specific binding.
Assays were performed in U-bottomed 96-well polypropylene plates. 30 μL [^3H]-spiperone (0.16 nM final concentration) and 30 μL of test compound (10× final concentration) were added to each test well. For each assay plate 8 replicates were obtained for [^3H]-spiperone binding in the presence of 30 μL vehicle (10% (v/v) DMSO in Assay Buffer; defining maximum binding) or 30 μL Haloperidol (10 μM final concentration; defining non-specific binding (NSB)). Membranes were then added to achieve a final volume of 300 μL. The plates were incubated for 2 hours at room temperature and then filtered onto PEI coated GF/B filter plates, pre-soaked for 1 hour in Assay Buffer, using a 96-well plate Tomtec cell harvester. Five washes with 250 μL wash buffer (50 mM HEPES, 1 mM EDTA, 120 mM NaCl, pH 7.4) were performed at 4° C. to remove unbound radioactivity. The plates were dried then sealed from underneath using Packard plate sealers and MicroScint-O (50 μL) was added to each well. The plates were sealed (TopSeal A) and filter-bound radioactivity was measured with a scintillation counter (TopCount, Packard BioScience) using a 3-minute counting protocol.
Total specific binding (B0) was determined by subtracting the mean NSB from the mean maximum binding. NSB values were also subtracted from values from all other wells.

For `CCN(CC)CCN(CCNC[C@H](O)c1ccc(O)c2[nH]c(=O)sc12)C(=O)CCOCCc1ccccc1` [Example 7, N-[2-(Diethylamino)ethyl]-N-(2-{[(2R)-2-hydroxy-2-(4-hydroxy-2-oxo-2,3-dihydro-1,3-benzothiazol-7-yl)ethyl]amino}ethyl)-3-(2-phenylethoxy)propanamide], the EC50 (β2 receptor [1]; cAMP, 10 minutes incubation with compound, 300 μM rolipram) was 2.51 nM, the “Intrinsic Activity” value (β2 receptor [1]; fraction relative to the maximum activity determined for formoterol, 10 minutes incubation) was 1.1 and the EC50 (β2 receptor [2]; cAMP, 60 minutes incubation with compound, 300 μM rolipram, read-out: β2 pEC50 (converted)) was 3.98 nM. The “β2 Int Act” value (β2 receptor [2]; fraction relative to the maximum activity determined for formoterol, 60 minutes incubation) was 1 and the IC50 [3] was 5.01 µM.
